Experimental data from article PMC4965013, “Open Source Drug Discovery with the Malaria Box Compound Collection for Neglected Diseases and Beyond” (PLoS Pathogens, 2016).
pEC50: −log10 of the molar value.

Tests used:
[1] = tested on: Saccharomyces cerevisiae strain WC081; test: Yeast disc diffusion in combination with artemisinin; type: cell-based; conditions: 10 µL of 1 mM on disc, 0.2 µM artemisinin, read-out: larger zone size with artemisinin (SCG+artemisinin minus SCG)
Source text: Yeast screening for enhanced drug effects in combination with artemisinin, Jensen group (data presented first in this paper). […] Yeast (S. cerevisiae) was used as a proxy for P. falciparum, because the killing of S. cerevisiae and P. falciparum appear to have similarities. Saccharomyces cerevisiae strain WC081 (Mat a, leu2∆0, lys2∆0, ura3∆0, his3∆1, pdr1∆::HIS3, pdr3∆::kanMX4) was utilized and was originally derived from strain BY4742. Regulators of Multi-drug resistance transporters have been deleted from this strain to enhance the toxicity of compounds. Assay utilized the disc diffusion method with the observance of a clear zone indicating inhibition of growth. Synthetic complete medium containing 3% glycerol as a carbon source (SCG) was used in each assay. 10 µL of each compound at 1 mM was added to a paper disc which was placed on SCG and SCG^+artemisinin (0.2 µM) plates seeded with 10e6 yeast cells. Plates were incubated at 30 °C for 5 days and clear zones were measured. Compounds that produced a larger clear zone in the presence of artemisinin were considered to have an additive interaction with artemisinin. Results are reported as diameter of clear zone on SCG^+artemisinin plates - diameter of clear zone on SCG plates without artemisinin.

Atg8-Atg3 = tested on: Atg8-Atg3; set-up: method as in ref [38] (a number printed in a supplementary file, which may have a reference list of its own: not looked up in the article's list); conditions: ref [38]; cited from earlier work
[2] = tested on: P. falciparum 3D7 trophozoites; test: Metabolomic fingerprint profiling LC-MS; type: cell-based, Plasmodium falciparum; set-up: UDP-D-glucose / ADP-D-glucose: unit not given here
P. falciparum = test: EC50 listed in S2 Table Metabolomics (used to set the concentration tested); type: cell-based; conditions: Plasmodium falciparum; EC50 used for Factor_XEC50 in metabolomics; read-out: EC50_nM
[3] = metabolite level change after treatment

CSc1ccccc1C(=O)Nc1nc(-c2ccccn2)cs1 [MMV001246]
zone of inhibition at 1000 µM [1]: 3 mm | PPI inhibitors of Atg8-Atg3 interaction (Atg8-Atg3): PPI inhibitors | Acetyllysine ([2]; S2 Table Metabolomics, metabolite Acetyllysine): 0.4532 | N-acetyl-L-ornithine ([2]; S2 Table Metabolomics, metabolite N-acetyl-L-ornithine): 0.4087 | N-carbamoyl-L-aspartate ([2]; S2 Table Metabolomics, metabolite N-carbamoyl-L-aspartate): 0.8167 | NADPH ([2]; S2 Table Metabolomics, metabolite NADPH): -0.6152 | dAMP ([2]; S2 Table Metabolomics, metabolite dAMP): 0.5623 | dCMP ([2]; S2 Table Metabolomics, metabolite dCMP): 1.316 | dTDP ([2]; S2 Table Metabolomics, metabolite dTDP): 1.003 | dTMP ([2]; S2 Table Metabolomics, metabolite dTMP): 1.155 | dTTP ([2]; S2 Table Metabolomics, metabolite dTTP): 0.605 | dihydroorotate ([2]; S2 Table Metabolomics, metabolite dihydroorotate): 0.8484 | orotate ([2]; S2 Table Metabolomics, metabolite orotate): -0.04882 | DLH ([2]; S2 Table Metabolomics, peptide DLH): -0.1638 | DLS/SDL/SID ([2]; S2 Table Metabolomics, peptide DLS/SDL/SID): -0.1191 | PD ([2]; S2 Table Metabolomics, peptide PD): 1.085 | PEE ([2]; S2 Table Metabolomics, peptide PEE): 0.2734 | PVNF ([2]; S2 Table Metabolomics, peptide PVNF): -0.2587 | 3-phosphoglycerate ([2]; metabolite 3-phosphoglycerate, S2 Table Metabolomics): -0.3067 | ADP-D-glucose ([2]; metabolite ADP-D-glucose, S2 Table Metabolomics): 0.2637 | ATP ([2]; metabolite ATP, S2 Table Metabolomics): -0.316 | CDP ([2]; metabolite CDP, S2 Table Metabolomics, change in metabolite level after compound treatment): 1.161 | D-sedoheptulose-1/7-phosphate ([2]; metabolite D-sedoheptulose-1/7-phosphate, S2 Table Metabolomics, change in metabolite level after compound treatment): 0.9582 | FAD ([2]; metabolite FAD, S2 Table Metabolomics): -0.06449 | GMP ([2]; metabolite GMP, S2 Table Metabolomics, change in metabolite level after compound treatment): -0.2602 | NAD+ ([2]; metabolite NAD+, S2 Table Metabolomics): 0.05063 | NADP+ ([2]; metabolite NADP+, S2 Table Metabolomics): 0.1259 | Octoluse Bisphosphate ([2]; metabolite Octoluse Bisphosphate, S2 Table Metabolomics, change in metabolite level after compound treatment): -0.02993 | Pyroglutamic acid ([2]; metabolite Pyroglutamic acid, S2 Table Metabolomics): -0.6363 | UDP-D-glucose ([2]; metabolite UDP-D-glucose, S2 Table Metabolomics): 0.1597 | UDP-D-glucuronate ([2]; metabolite UDP-D-glucuronate, S2 Table Metabolomics): 0.09079 | UDP-N-acetyl-glucosamine ([2]; metabolite UDP-N-acetyl-glucosamine, S2 Table Metabolomics): 0.2113 | UDP ([2]; metabolite UDP, S2 Table Metabolomics, change in metabolite level after compound treatment): 1.27 | UMP ([2]; metabolite UMP, S2 Table Metabolomics, change in metabolite level after compound treatment): -0.2249 | UTP ([2]; metabolite UTP, S2 Table Metabolomics, change in metabolite level after compound treatment): 0.2071 | a-ketoglutarate ([2]; metabolite a-ketoglutarate, S2 Table Metabolomics): -0.3343 | citrate/isocitrate ([2]; metabolite citrate/isocitrate, S2 Table Metabolomics, change in metabolite level after compound treatment): 0.6139 | cytidine ([2]; metabolite cytidine, S2 Table Metabolomics): -0.1132 | dATP ([2]; metabolite dATP, S2 Table Metabolomics): -0.2342 | dGMP/AMP ([2]; metabolite dGMP/AMP, S2 Table Metabolomics, change in metabolite level after compound treatment): 0.5523 | fumarate ([2]; metabolite fumarate, S2 Table Metabolomics, change in metabolite level after compound treatment): 0.07419 | glucose-1/6-phosphate ([2]; metabolite glucose-1/6-phosphate, S2 Table Metabolomics, change in metabolite level after compound treatment): 0.3611 | glycerate ([2]; metabolite glycerate, S2 Table Metabolomics, change in metabolite level after compound treatment): -0.4138 | guanine ([2]; metabolite guanine, S2 Table Metabolomics, change in metabolite level after compound treatment): 0.2842 | guanosine ([2]; metabolite guanosine, S2 Table Metabolomics, change in metabolite level after compound treatment): 0.03562 | hypoxanthine ([2]; metabolite hypoxanthine, S2 Table Metabolomics): -0.2148 | indole ([2]; metabolite indole, S2 Table Metabolomics): -0.09781 | inosine ([2]; metabolite inosine, S2 Table Metabolomics, change in metabolite level after compound treatment): -0.005486 | 2_3-Diphosphoglyceric acid [2, 3]: 0.509 | 4-phosphopantothenate [2, 3]: 0.08862 | 6-phospho-D-gluconate [2, 3]: 0.2643 | FMN [2, 3]: 0.1616 | IMP [2, 3]: 0.3566 | Pyrophosphate [2, 3]: 0.4487 | Sedoheptoluse bisphosphate [2, 3]: -0.09548 | cyclic-AMP [2, 3]: -0.2042 | glutathione disulfide [2, 3]: 0.1188 | lactate [2, 3]: -0.259 | myo-inositol [2, 3]: -0.2589 | nicotinate ([2]; metabolite nicotinate, S2 Table Metabolomics): -0.09283 | ornithine ([2]; metabolite ornithine, S2 Table Metabolomics): 0.2998 | phosphoenolpyruvate ([2]; metabolite phosphoenolpyruvate, S2 Table Metabolomics): -0.3081 | pyruvate ([2]; metabolite pyruvate, S2 Table Metabolomics, change in metabolite level after compound treatment): -0.1972 | ribose-phosphate ([2]; metabolite ribose-phosphate, S2 Table Metabolomics): -0.4595 | sarcosine/alanine ([2]; metabolite sarcosine/alanine, S2 Table Metabolomics, change in metabolite level after compound treatment): 0.1583 | sn-glycerol-3-phosphate ([2]; metabolite sn-glycerol-3-phosphate, S2 Table Metabolomics): -0.08199 | succinate/methylmalonic acid ([2]; metabolite succinate/methylmalonic acid, S2 Table Metabolomics, change in metabolite level after compound treatment): 0.009107 | uridine ([2]; metabolite uridine, S2 Table Metabolomics, change in metabolite level after compound treatment): 0.08525 | xanthosine ([2]; metabolite xanthosine, S2 Table Metabolomics, change in metabolite level after compound treatment): -0.2265 | pEC50 (P. falciparum): 6.69
